Test results: ChEMBL document CHEMBL1144869, “Introduction of a chemical constraint in a short peptide derived from human acidic fibroblast growth factor elicits mitogenic structural determinants” (2003)

What was measured:
NIH3T3 = assay: Displacement of human acidic FGF from FGF receptor of mouse 3T3 cells at 0-200 uM; assay type: cell-based
Mus musculus = species: Mus musculus; assay: Mitogenic effect on BALB/c 3T3 A31 fibroblast culture at 0-200 uM; assay type: functional; settings: BALB/c3T3, read-out: ED50 (the source's name)

Structure (SMILES): CC(=O)N[C@@H](Cc1c[nH]c2ccccc12)C(=O)N[C@@H](Cc1ccccc1)C(=O)N[C@H](C(=O)NCC(=O)N[C@@H](CC(C)C)C(=O)N[C@@H](CCCCN)C(=O)N[C@@H](CCCCN)C(=O)N[C@@H](CC(N)=O)C(=O)NCC(=O)N[C@@H](CO)C(=O)N[C@@H](CO)C(=O)N[C@@H](CCCCN)C(=O)N[C@@H](CCCN=C(N)N)C(=O)NCC(=O)N1CCC[C@@H]1C(=O)N[C@@H](CCCN=C(N)N)C(=O)N[C@H](C(N)=O)[C@@H](C)O)C(C)C
- ID50 (NIH3T3): 50 µM

Structure (SMILES): CC(=O)N[C@@H](Cc1c[nH]c2ccccc12)C(=O)N[C@@H](Cc1ccccc1)C(=O)N[C@H](C(=O)NCC(=O)N[C@@H](CC(C)C)C(=O)N[C@@H](CCCCN)C(=O)N[C@@H](CCCCN)C(=O)N[C@@H](CC(N)=O)C(=O)NCC(=O)N[C@@H](CO)C(=O)N[C@@H](CO)C(=O)N[C@@H](CCCCN)C(=O)N[C@@H](CCCN=C(N)N)C(=O)NCC(=O)N1CCC[C@H]1C(=O)N[C@@H](CCCN=C(N)N)C(=O)N[C@H](C(N)=O)[C@@H](C)O)C(C)C
- EC50 (Mus musculus): 20 µM
